Source: article PMC5584973, “Characterization of novel bangle lectin from Photorhabdus asymbiotica with dual sugar-binding specificity and its effect on host immunity” (PLoS Pathogens, 2017)

Assays:
whole human blood = assay: Oxidative burst (ROS production) in human blood; format: cell-based; conditions: 125 μg protein
Description: ROS production was measured according to previously published work in whole human blood within 15 min of sampling. The fresh human blood (2 μl diluted 40x in HBSS; 0.137 M NaCl, 5.4 mM KCl, 0.44 mM KH2PO4, 0.25 mM Na2HPO4, 4.2 mM NaHCO3, 1.0 mM MgSO4, 1.3 mM CaCl2, 5.55 mM glucose; pH 7.4) was mixed with 25 μl of PHL (125 μg in PBS for all experiments except dose-dependence assay where different dilutions of PHL were used), BSA (125 μg in PBS) or PBS (pH 7.4) and incubated for 10 min at 37°C or room temperature. After incubation, 25 μl of the luminophore (10 mM luminol) and 25 μl of activator zymosan A (2.5 mg/ml in HBSS) was added to activate ROS production in phagocytes. To detect the constitutive production of ROS, zymosan was replaced with the same volume of HBSS. Luminescence was recorded with a Chameleon V luminometer (Hidex, Finland) for two hours at 37°C or room temperature, and the integrals of reactions were compared. Results from experimental treatments (incubation of blood with PHL and BSA) were normalised to the integral of the oxidative response in the respective blood sample with PBS.

human serum = assay: Antimicrobial activity of human serum against E. coli K12; conditions: 320 μg protein
Description: Samples of human blood were collected from healthy donors to tubes without anticoagulant and anonymized prior to experiments. The blood was allowed to clot for at least 10 min, centrifuged at 2,000 g, 10 min to remove the clot and the collected serum was used immediately for subsequent analysis. The serum was analysed within two hours after blood collection in all experiments.
(§1) The antimicrobial activity of human sera and insect haemolymph was measured luminometrically using the bioluminescent Gram-negative bacteria Escherichia coli K12 [59]. We have modified previously published protocol to measure the effect of PHL [60]. […] After treatment, 120 μl of bacteria working solution containing 100,000 E. coli K12 cells in PBS (pH 7.0) was added to the reaction well and the luminescence signal was recorded with a Chameleon V luminometer (Hidex, Finland) in counts per second (CPS). Reaction wells with PHL, BSA or PBS in an 80 μl volume of the same concentrations and pH as above were measured with E. coli K12 in each experiment as viability controls, not affected by human serum nor haemolymph. The luminescence produced by E. coli K12 corresponds to the bacterial viability. The antimicrobial effect of human sera and haemolymph was determined as time elapsed until the luminescence signal decreased under 1000 or 5000 CPS, respectively. […]

G. mellonella haemolymph = assay: Antimicrobial activity of insect haemolymph against E. coli K12; design: species or system Galleria mellonella; conditions: 320 μg protein
Description: (§2) Larvae of the greater wax moth, Galleria mellonella, were reared on an artificial diet at 30 ± 1°C in constant darkness. Haemolymph was collected from the seventh instar larvae by cutting a proleg and pooling the haemolymph into a tube containing phenylthiourea (1 mg/ml in PBS; haemolymph mixed with phenylthiourea in the ratio 9:1 [v/v]) or used directly for the determination of phenoloxidase activity.
as §1

[1] = system: phenoloxidase (PO) in haemolymph of G. mellonella; assay: Phenoloxidase activity in insect haemolymph; format: biochemical, Galleria mellonella; conditions: G. mellonella haemolymph; 475 μg for BSA, PLL
Description: as §2
PO activity was measured according to previously published studies. Haemolymph of G. mellonella (5 μl) was collected directly to 95 μl of PHL (475 μg in PBS for all experiments except dose-dependence assay where different dilutions of PHL were used), PLL (475 μg in PBS), BSA (475 μg in PBS) or PBS (pH 7.4) and incubated for 10 min at room temperature. After incubation, 40 μl of reaction mixture was transported to the microplate well and 160 μl of 3,4-dihydroxy-DL-phenylalanine (3 mg/ml in PBS) was added as substrate. The reaction was allowed to proceed for 30 min, and absorbance was measured in 2-min intervals at 492 nm with a Sunrise reader (Tecan, Switzerland). PO activity was expressed as linear increase in absorbance per minute. For the inhibition assay, PHL was pre-incubated with 0.2M L-Fuc or Me-α-L-Fuc for 10 min at room temperature prior to mixing with haemolymph.

Question: What does the source list for bovine serum albumin [BSA]?
Answer: ROS production (integral of luminescence) (whole human blood; blood challenged with activator zymosan A): 5.3±1.3 x 10^6 CPS*min; constitutive ROS production (integral of luminescence) (whole human blood; whole human blood A/B/O, without activator, 2 hours): 26.9±16.9 x 10^3 CPS*min; effect on antimicrobial activity against E. coli K12 (human serum): not able to block the effect of antimicrobial factors; effect on antimicrobial activity against E. coli K12 (G. mellonella haemolymph): not able to block the effect of antimicrobial factors; effect on PO activity (melanisation) [1]: did not have any effect
